Two molecules from ChEMBL document CHEMBL1141203, “Transforming bivalent ligands into retractable enzyme inhibitors through polypeptide-protein interactions” (Bioorg Med Chem Lett, 2005) can be followed below.

The structures appear in SMILES notation. pKi: −log10 of the molar value.

This experiment concerns the target Prothrombin (Homo sapiens, UniProt P00734). Put plainly: Inhibitory activity against human thrombin by amidolytic assay using chromogenic S-2238 substrate. Format: functional.

Molecule `CC[C@H](C)C[C@H](NC(=O)[C@H](CC(C)C)NC(=O)[C@H](CCCCN)NC(=O)[C@H](CCC(N)=O)NC(=O)[C@H](CCC(=O)O)NC(=O)CNC(=O)[C@H]1CCCCN1C(=O)[C@H](CCCN=C(N)N)NS(=O)(=O)c1ccc(C(C)(C)C)cc1)C(=O)N[C@@H](CO)C(=O)N[C@@H](CCC(=O)O)C(=O)N[C@@H](CCC(=O)O)C(=O)N[C@@H](CC(=O)O)C(=O)N[C@@H](CC(C)C)C(=O)NCC(=O)N[C@@H](CC(=O)O)C(=O)N[C@@H](Cc1ccccc1)C(=O)N[C@@H](CCC(=O)O)C(=O)N[C@@H](CCC(=O)O)C(=O)N[C@H](C(=O)N1CCC[C@H]1C(=O)N[C@@H](CCC(=O)O)C(=O)N[C@@H](CCC(=O)O)C(=O)N[C@@H](Cc1ccc(O)cc1)C(=O)N[C@@H](CC(C)C)C(=O)N[C@@H](CCC(N)=O)C(=O)O)[C@@H](C)CC` showed a negative-log Ki (pKi) of 7.18.
Molecule `CC[C@H](C)[C@H](NC(=O)[C@H](CCC(=O)O)NC(=O)[C@H](CCC(=O)O)NC(=O)[C@H](Cc1ccccc1)NC(=O)[C@H](CC(=O)O)NC(=O)CNC(=O)[C@H](CO)NC(=O)CNC(=O)[C@H](CO)NC(=O)CNC(=O)[C@H]1CCCCN1C(=O)[C@H](CCCN=C(N)N)NS(=O)(=O)c1ccc(C(C)(C)C)cc1)C(=O)N1CCC[C@H]1C(=O)N[C@@H](CCC(=O)O)C(=O)N[C@@H](CCC(=O)O)C(=O)N[C@@H](Cc1ccc(O)cc1)C(=O)N[C@@H](CC(C)C)C(=O)N[C@@H](CCC(N)=O)C(=O)O` gave a pKi of 7.44.

One may read the pKi as the Ki on a negative log10 scale, so that one unit is a factor of ten. A lower pKi goes with a high Ki.
